The source of these data is patent US8962608B2, “Cycloalkylnitrile pyrazole carboxamides as janus kinase inhibitors” (Merck Sharp & Dohme Corp., priority 2011, dated 2015).

Each structure is given as a SMILES string.
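Note: biochemical JAK kinase assay with HTRF detection.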

The test deals with JAK2 (recombinant purified GST-tagged catalytic domain) (Homo sapiens (Human), UniProt O60674). Put plainly: biochemical.
Sequence of JAK2 (recombinant purified GST-tagged catalytic domain) (O60674 849-1124): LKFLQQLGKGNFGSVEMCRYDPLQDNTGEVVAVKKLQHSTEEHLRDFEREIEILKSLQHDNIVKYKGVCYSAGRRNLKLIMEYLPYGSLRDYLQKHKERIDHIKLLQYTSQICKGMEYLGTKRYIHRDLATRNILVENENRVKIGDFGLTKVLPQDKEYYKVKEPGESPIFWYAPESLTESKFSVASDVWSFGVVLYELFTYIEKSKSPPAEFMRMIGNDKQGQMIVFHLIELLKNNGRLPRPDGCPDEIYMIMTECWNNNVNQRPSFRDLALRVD
For `N#C[C@H]1C[C@@H](NCC(F)(F)F)CC[C@@H]1n1cc(C(N)=O)c(Nc2ccc(S(=O)(=O)C(F)(F)F)cc2)n1` (single isomer, unassigned) [Example 28-107, 1-{(1S,2S,4S or 1R,2R,4R)-2-cyano-4-[(2,2,2-trifluoroethyl)amino]cyclohexyl}-3-({4-[(trifluoro-methyl)sulfonyl]phenyl}amino)-1H-pyrazole-4-carboxamide], the IC50 (as a rule, the point on the concentration scale where inhibition reaches its midpoint) came to 31 nM.
In the case of `N#C[C@H]1C[C@@H](NCC(F)F)CC[C@@H]1n1cc(C(N)=O)c(Nc2ccnc(F)c2)n1` (single isomer, unassigned) [Example 28-115, 1-{(1S,2S,4S or 1R,2R,4R)-2-cyano-4-[(2,2-difluoroethyl)amino]cyclohexyl}-3-[(2-fluoropyridin-4-yl)amino]-1H-pyrazole-4-carboxamide], the IC50 was 33 nM.
On to `CS(=O)(=O)c1ccc(Nc2nn([C@H]3CC[C@H](N4CC5(CCC5)C4)C[C@@H]3C#N)cc2C(N)=O)cc1` (single isomer, unassigned) [Example 28-130, 1-[(1S,2S,4S or 1R,2R,4R)-4-(2-azaspiro[3.3]hept-2-yl)-2-cyanocyclohexyl]-3-{[4-(methylsulfonyl)phenyl]amino}-1H-pyrazole-4-carboxamide], for which the IC50 came out at 5 nM.
Consider `N#C[C@H]1C[C@@H](N2CC3(CCC3)C2)CC[C@@H]1n1cc(C(N)=O)c(Nc2ccccc2)n1` (single isomer, unassigned) [Example 28-136, 1-[(1S,2S,4S or 1R,2R,4R)-4-(2-azaspiro[3.3]hept-2-yl)-2-cyanocyclohexyl]-3-(phenylamino)-1H-pyrazole-4-carboxamide], for which the IC50 was determined as 61 nM.
With `N#C[C@H]1C[C@@H](NC2CC2)CC[C@@H]1n1cc(C(N)=O)c(Nc2ccc(C(F)(F)F)cc2)n1` (single isomer, unassigned) [Example 28-137, 1-[(1S,2S,4S or 1R,2R,4R)-2-cyano-4-(cyclopropylamino)cyclohexyl]-3-{[4-(trifluoromethyl)phenyl]amino}-1H-pyrazole-4-carboxamide], the half-maximal inhibitory concentration (IC50) was 22 nM.
Turning to `N#C[C@H]1C[C@H](NC2CC2)CC[C@@H]1n1cc(C(N)=O)c(Nc2ccc(C(F)(F)F)cc2)n1` (single isomer, unassigned) [Example 28-139, 1-[(1S,2S,4R or 1R,2R,4R)-2-cyano-4-(cyclopropylamino)cyclohexyl]-3-{[4-(trifluoromethyl)phenyl]amino}-1H-pyrazole-4-carboxamide], the IC50 came out at 113 nM.
As for `CC1(C)CN([C@H]2CC[C@H](n3cc(C(N)=O)c(Nc4ccc(Cl)cc4)n3)[C@@H](C#N)C2)C1` (single isomer, unassigned) [Example 28-144, 3-[(4-chlorophenyl)amino]-1-[(1S,2S,4S or 1R,2R,4R)-2-cyano-4-(3,3-dimethylazetidin-1-yl)cyclohexyl]-1H-pyrazole-4-carboxamide], the figure is 21 nM.
As for `CS(=O)(=O)c1ccc(Nc2nn([C@H]3CC[C@@H](N4CC5(CCC5)C4)C[C@@H]3C#N)cc2C(N)=O)cc1` (single isomer, unassigned) [Example 28-145, 1-[(1S,2S,4R or 1R,2R,4S)-4-(2-azaspiro[3.3]hept-2-yl)-2-cyanocyclohexyl]-3-{[4-(methylsulfonyl)phenyl]amino}-1H-pyrazole-4-carboxamide], the IC50 came out at 15 nM.
Regarding `N#C[C@H]1CC(N2CCC[C@@H]2CF)CC[C@@H]1n1cc(C(N)=O)c(Nc2ccc(S(=O)(=O)C(F)(F)F)cc2)n1` (single isomer, unassigned) [Example 28-156, 1-{(1S,2S or 1R,2R)-2-cyano-4-[(2R)-2-(fluoromethyl)pyrrolidin-1-yl]cyclohexyl}-3-({4-[(trifluoro-methyl)sulfonyl]phenyl}amino)-1H-pyrazole-4-carboxamide], the IC50 is 14 nM.
As for `N#C[C@H]1CC(N2CCC[C@H]2CF)CC[C@@H]1n1cc(C(N)=O)c(Nc2ccc(S(=O)(=O)C(F)(F)F)cc2)n1` (single isomer, unassigned) [Example 28-157, 1-{(1S,2S or 1R,2R)-2-cyano-4-[(2S)-2-(fluoromethyl)pyrrolidin-1-yl]cyclohexyl}-3-({4-[(trifluoro-methyl)sulfonyl]phenyl}amino)-1H-pyrazole-4-carboxamide], the figure is 28 nM; as for `N#C[C@H]1C[C@@H](NCC(F)F)CC[C@@H]1n1cc(C(N)=O)c(Nc2ccc(S(=O)(=O)C(F)(F)F)cc2)n1` (single isomer, unassigned) [Example 28-165, 1-{(1S,2S,4S or 1R,2R,4R)-2-cyano-4-[(2,2-difluoroethyl)amino]cyclohexyl}-3-({4-[(trifluoro-methyl)sulfonyl]phenyl}amino)-1H-pyrazole-4-carboxamide], 4 nM.
Take `N#C[C@H]1C[C@@H](NCCC(F)(F)F)CC[C@@H]1n1cc(C(N)=O)c(Nc2ccc(S(=O)(=O)C(F)(F)F)cc2)n1` (single isomer, unassigned) [Example 28-166, 1-{(1S,2S,4S or 1R,2R,4R)-2-cyano-4-[(3,3,3-trifluoro-propyl)amino]cyclohexyl}-3-({4-[(trifluoro-methyl)sulfonyl]phenyl}amino)-1H-pyrazole-4-carboxamide]: the IC50 was 55 nM.
`N#C[C@H]1C[C@H](NCCC(F)(F)F)CC[C@@H]1n1cc(C(N)=O)c(Nc2ccc(S(=O)(=O)C(F)(F)F)cc2)n1` (single isomer, unassigned) [Example 28-167, 1-{(1S,2S,4R or 1R,2R,4S)-2-cyano-4-[(3,3,3-trifluoropropyl)amino]cyclo-hexyl}-3-({4-[(trifluoro-methyl)sulfonyl]phenyl}amino)-1H-pyrazole-4-carboxamide]: the IC50 turned out to be 82 nM.
As for `N#C[C@H]1C[C@@H](NCC2CC2)CC[C@@H]1n1cc(C(N)=O)c(Nc2ccc(S(=O)(=O)C(F)(F)F)cc2)n1` (single isomer, unassigned) [Example 28-172, 1-{(1S,2S,4S or 1R,2R,4R)-2-cyano-4-[(cyclopropylmethyl)amino]cyclo-hexyl}-3-({4-[(trifluoromethyl)sulfonyl]phen-yl}amino)-1H-pyrazolc-4-carboxamide], the figure is 8 nM; as for `N#C[C@H]1C[C@H](NCC2CC2)CC[C@@H]1n1cc(C(N)=O)c(Nc2ccc(S(=O)(=O)C(F)(F)F)cc2)n1` (single isomer, unassigned) [Example 28-173, 1-{(1S,2S,4R or 1R,2R,4S)-2-cyano-4-[(cyclopropyl-methyl)amino]cyclohexyl}-3-({4-[(trifluoro-methyl)sulfonyl]phenyl}amino)-1H-pyrazole-4-carboxamide], 24 nM.
Take `CC(N[C@H]1CC[C@H](n2cc(C(N)=O)c(Nc3ccc(S(=O)(=O)C(F)(F)F)cc3)n2)[C@@H](C#N)C1)C1CC1` (single isomer, unassigned) [Example 28-176, 1-[(1S,2S,4S or 1R,2R,4R)-2-cyano-4-{[(1R)-1-cyclopropylethyl]amino}cyclo-hexyl]-3-({4-[(trifluoromethyl)sulfonyl]phen-yl}amino)-1H-pyrazole-4-carboxamide]: the IC50 stood at 11 nM.
On to `CC(N[C@@H]1CC[C@H](n2cc(C(N)=O)c(Nc3ccc(S(=O)(=O)C(F)(F)F)cc3)n2)[C@@H](C#N)C1)C1CC1` (single isomer, unassigned) [Example 28-177, 1-[(1S,2S,4R or 1R,2R,4S)-2-cyano-4-{[(1S)-1-cyclopropylethyl]amino}cyclo-hexyl]-3-({4-[(trifluoromethyl)sulfonyl]phen-yl]amino)-1H-pyrazole-4-carboxamide], for which the IC50 was determined as 43 nM.
Regarding `CN(C(C1CC1)C1CC1)[C@H]1CC[C@H](n2cc(C(N)=O)c(Nc3ccc(S(=O)(=O)C(F)(F)F)cc3)n2)[C@@H](C#N)C1` (single isomer, unassigned) [Example 28-178, 1-{(1S,2S,4S or 1R,2R,4R)-2-cyano-4-[(dicyclopropyl-methyl)(methyl)amino]cyclo-hexyl}-3-({4-[(trifluoromethyl)sulfonyl]phen-yl}amino)-1H-pyrazole-4-carboxamide], the IC50 was determined as 2 nM.
As for `CN(C(C1CC1)C1CC1)[C@@H]1CC[C@H](n2cc(C(N)=O)c(Nc3ccc(S(=O)(=O)C(F)(F)F)cc3)n2)[C@@H](C#N)C1` (single isomer, unassigned) [Example 28-179, 1-{(1S,2S,4R or 1R,2R,4S)-2-cyano-4-[(dicyclopropyl-methyl)(methyl)amino]cyclo-hexyl}-3-({4-[(trifluoromethyl)sulfonyl]phen-yl}amino)-1H-pyrazole-4-carboxamide], the figure is 170 nM; as for `C[C@@H](N[C@H]1CC[C@H](n2cc(C(N)=O)c(Nc3ccc(S(=O)(=O)C(F)(F)F)cc3)n2)[C@@H](C#N)C1)C1CC1` (single isomer, unassigned) [Example 28-182, 1-[(1S,2S,4S or 1R,2R,4R)-2-cyano-4-{[(1R)-1-cyclopropylethyl]amino}cyclo-hexyl]-3-({4-[(trifluoromethyl)sulfonyl]phen-yl}amino)-1H-pyrazole-4-carboxamide], 12 nM; as for `C[C@@H](N[C@@H]1CC[C@H](n2cc(C(N)=O)c(Nc3ccc(S(=O)(=O)C(F)(F)F)cc3)n2)[C@@H](C#N)C1)C1CC1` (single isomer, unassigned) [Example 28-183, 1-{(1S,2S,4R or 1R,2R,4S)-2-cyano-4-[(1-cyclopropylethyl)amino]cyclo-hexyl}-3-({4-[(trifluoromethyl)sulfonyl]phen-yl}amino)-1H-pyrazole-4-carboxamide], 61 nM.
As to `C[C@H](N[C@H]1CC[C@H](n2cc(C(N)=O)c(Nc3ccc(S(=O)(=O)C(F)(F)F)cc3)n2)[C@@H](C#N)C1)C1CC1` (single isomer, unassigned) [Example 28-184, 1-{(1S,2S,4S or 1R,2R,4R)-2-cyano-4-[(1-cyclopropylethyl)amino]cyclo-hexyl}-3-({4-[(trifluoromethyl)sulfonyl]phen-yl}amino)-1H-pyrazole-4-carboxamide], the 50% inhibitory concentration (IC50) came out at 23 nM.
Consider `C[C@H](N[C@@H]1CC[C@H](n2cc(C(N)=O)c(Nc3ccc(S(=O)(=O)C(F)(F)F)cc3)n2)[C@@H](C#N)C1)C1CC1` (single isomer, unassigned) [Example 28-185, 1-[(1S,2S,4R or 1R,2R,4S)-2-cyano-4-{[(1S)-1-cyclopropylethyl]amino}cyclo-hexyl]-3-({4-[(trifluoromethyl)sulfonyl]phen-yl}amino)-1H-pyrazole-4-carboxamide], for which the IC50 is 83 nM.
